Experiments:
[1] = test system: visual cortex; experiment: Clinical observation: electro-functional test, PEV visual evoked potentials; assay type: in vivo, human; conditions: after 6 months of treatment, in addition to hypotensive therapy, 3 patients
Method: 12 randomized patients were included in 4 groups: • CIT. GROUP-3 patients treated with citicoline in oral solution 10 ml/die corresponding to 500 mg/die of citicoline, in addition to the hypotensive therapy; • NIC. […] The patients were treated and followed for 6 months. At baseline and after 6 months of treatment complete eye examination including visual acuity, control of the intraocular pressure (IOP) with Goldmann tonometry (GAT); visual field testing, electro-functional and morphological examination were performed. Then (2) electro-functional test was performed: electroretinogram from PERG pattern and of the PEV visual evoked potentials to evaluate the bioelectric responses respectively of the retinal ganglion cells and of the visual cortex evoked from the visual stimuli. The patients were positioned in an acoustically insulated semi-dark room, in front of the display surrounded by a uniform field of luminance of 5 cd/m2. […] The signal to PERG and PEV was recorded by a small electrode of Ag/AgCl positioned respectively above the lower eyelid and on the scalp. […] The peak-peak widths were measured at PERG P50-N95 for each wave. […] During a recording session, simultaneous PERG and PEV were recorded at least twice (between two and six times) and the resulting waveforms were overlapped to verify the repeatability of results. […]

[2] = test system: layer of the RNFL nerve fibres; experiment: Clinical observation: RNFL thickness by SD-OCT; assay type: in vivo, human; conditions: after 6 months of treatment, in addition to hypotensive therapy, 3 patients
Method: 12 randomized patients were included in 4 groups: • CIT. GROUP-3 patients treated with citicoline in oral solution 10 ml/die corresponding to 500 mg/die of citicoline, in addition to the hypotensive therapy; • NIC. […] The patients were treated and followed for 6 months. At baseline and after 6 months of treatment complete eye examination including visual acuity, control of the intraocular pressure (IOP) with Goldmann tonometry (GAT); visual field testing, electro-functional and morphological examination were performed. (3) The evaluation of the thickness of the layer of the RNFL nerve fibres was performed with spectral-domain optical coherence tomography SD-OCT (RTVue Model-RT100 version 3.5; Optovue Inc, Fremont, CA, USA). Such analysis allows a tomographic survey of retina capable of highlighting, through high-resolution cross sections, structural details of the cellular layers and of their plexuses and allows a qualitative and quantitative analysis of the retinal alterations. The patients were positioned in front of the instrument and invited to observe a luminous target: the instrument, once the ocular structure to be analysed is focused, performs the scanning.

[3] = test system: glaucomatous patients; conditions: cited from earlier work
[4] = test system: patients with controlled IOP; conditions: oral citicoline, patients with IOP <18 mmHg on b-blockers; cited from earlier work
[5] = test system: glaucomatous patients; conditions: citicoline intramuscularly, 10-year follow-up; cited from earlier work
[6] = in five days; cited from earlier work

SMILES | PEV P100 IT [1] | RNFL-TO [2] | increase of the width of P50-N95 tract of pERG ([3]; citicoline in oral solution) [%] | loss of nervous fibres at the retinal layer through GDX ([3]; oral solution 500 mg/die, vs antihypertensive therapy only) | latency time of VEP [4] | width of PERG signal [4] | perimetric defect (areas of not perception) [5] | elimination of the marked products [6] [%]
C[N+](C)(C)CCOP(=O)([O-])OP(=O)(O)OC[C@H]1O[C@@H](n2ccc(N)nc2=O)C(O)C1O (stereo partly shown) [Citicoline, citidin-5′-difosfocholine] | 119.1 (±7.22) ms | 65.0 (±12.0) | 100 | slows down the loss of nervous fibres at the retinal layer | decrease in latency time of VEP | improvement in the width of PERG signal | reduction of the perimetric defect | 16
NC(=O)c1cccnc1 [Nicotinamide] | 119.5 (±7.00) ms | 61.1 (±12.5) | – | – | – | – | – | –
